Patent US9586936B2, “Heteroarylamine derivatives as protein kinase inhibitors” (KOREA INSTITUTE OF SCIENCE AND TECHNOLOGY, priority 2014, dated 2017)
Where two headings read alike, the source gives them in different places.

Columns and labels:
[1] = microsomal stability; format: in vitro ADME, Mouse; conditions: for microsomal stability (% at time) / microsomal stability (% at time), Negative control (excluding NADPH): Mouse
Description: (§1) The microsomal stability of N-(2,6-dichloro-3,5-dimethoxyphenyl)-1-(6-((4-(4-ethylpiperazin-1-yl)phenyl)amino)pyrimidin-4-yl)-1H-benz[d]imidazol-2-amine synthesized in Example 1, as a representative compound of the present invention, was evaluated.

[2] = microsomal stability; format: in vitro ADME, Human; conditions: for microsomal stability (% at time): Human
Description: as §1

[3] = in-vivo PK profile, rat PK; conditions: Sprague-Dawley rat; for MRT inf: read-out: MRT(0-∞)
Source text: The in-vivo PK profile (mouse PK/ICR mice and rat PK/Sprague-Dawley rat) of N-(2,6-dichloro-3,5-dimethoxyphenyl)-1-(6-((4-(4-ethylpiperazin-1-yl)phenyl)amino)pyrimidin-4-yl)-1H-benz[d]imidazol-2-amine synthesized in Example 1 is as follows.

SMILES: CCN1CCN(c2ccc(Nc3cc(-n4c(Nc5c(Cl)c(OC)cc(OC)c5Cl)nc5ccccc54)ncn3)cc2)CC1 [Example 1, N-(2,6-dichloro-3,5-dimethoxyphenyl)-1-(6-((4-(4-ethylpiperazin-1-yl)phenyl)amino)pyrimidin-4-yl)-1H-benz[d]imidazol-2-amine]
- microsomal stability (% at time) ([1]; 0 min): 100.00%
- microsomal stability (% at time), Negative control (excluding NADPH) ([1]; 0 min): 100.00%
- microsomal stability (% at time) ([1]; 5 min): 62.73%
- microsomal stability (% at time), Negative control (excluding NADPH) ([1]; 5 min): 103.56%
- microsomal stability (% at time) ([1]; 10 min): 40.77%
- microsomal stability (% at time), Negative control (excluding NADPH) ([1]; 10 min): 103.56%
- microsomal stability (% at time) ([1]; 15 min): 29.27%
- microsomal stability (% at time), Negative control (excluding NADPH) ([1]; 15 min): 102.67%
- microsomal stability (% at time) ([1]; 30 min): 11.88%
- microsomal stability (% at time), Negative control (excluding NADPH) ([1]; 30 min): 106.67%
- microsomal stability (% at time) ([1]; 45 min): 3.87%
- microsomal stability (% at time), Negative control (excluding NADPH) ([1]; 45 min): 106.67%
- microsomal stability (% at time) ([1]; 60 min): 3.64%
- microsomal stability (% at time), Negative control (excluding NADPH) ([1]; 60 min): 104.44%
- half-life ([1]; microsomes, Mouse microsomal stability): 9.93 min
- microsomal stability (% at time) ([2]; 0 min): 100.00%
- microsomal stability (% at time) ([2]; 5 min): 80.36%
- microsomal stability (% at time) ([2]; 10 min): 76.63%
- microsomal stability (% at time) ([2]; 15 min): 64.04%
- microsomal stability (% at time) ([2]; 30 min): 51.45%
- microsomal stability (% at time) ([2]; 45 min): 37.62%
- microsomal stability (% at time) ([2]; 60 min): 36.17%
- half-life ([2]; microsomes, Human microsomal stability): 33.9 min
- F* ([3]; PO 5 mg/kg): 13.46%
- AUC(0-inf) ([3]; in vivo, IV 5 mg/kg): 884 ng·h/mL
- AUC(0-t) ([3]; in vivo, IV 5 mg/kg): 844 ng·h/mL
- Cmax ([3]; in vivo, IV 5 mg/kg): 271 ng/mL
- Tmax ([3]; in vivo, IV 5 mg/kg): 0.083 h
- clearance ([3]; in vivo, IV 5 mg/kg): 97.3 mL/min/kg
- half-life ([3]; in vivo, IV 5 mg/kg): 345 min
- MRT inf ([3]; in vivo, IV 5 mg/kg): 6.37 h
- Vd ([3]; in vivo, IV 5 mg/kg, read-out: Vz): 48 L/kg
- AUC(0-inf) ([3]; in vivo, PO 5 mg/kg): 652 ng·h/mL
- AUC(0-t) ([3]; in vivo, PO 5 mg/kg): 129 ng·h/mL
- Cmax ([3]; in vivo, PO 5 mg/kg): 11.6 ng/mL
- Tmax ([3]; in vivo, PO 5 mg/kg): 5.33 h
- half-life ([3]; in vivo, PO 5 mg/kg): 548 min
- MRT inf ([3]; in vivo, PO 5 mg/kg): 12.6 h
